Data from patent US7629320B2, “Nucleoside derivatives for treating hepatitis C virus infection” (SmithKline Beecham Corporation, priority 2002, dated 2009).

Legend:
HCV = assay: activity of Example 26 (test not stated; patent concerns anti-hepatitis C activity); conditions: test not specified
[1] = patients treated at currently recommended doses; cited from earlier work

| SMILES | activity (stated in words) (HCV) | patients with significant hemolysis [1] |
| --- | --- | --- |
| O=P(O)(O)OP(=O)(O)OP(=O)(O)OC[C@H]1O[C@@H](n2cnc3c(NO)ncnc32)[C@H](O)[C@@H]1O [Example 26, 6-Hydroxylamino-9-β-D-ribofuranosylpurine 5′-Triphosphate] | inactive |  |
| NC(=O)c1ncn([C@@H]2O[C@H](CO)[C@@H](O)[C@H]2O)n1 [Ribavirin, 1-β-D-ribofuranosyl-1H-1,2,-4-triazole-3-carboxamide] |  | 10-20% |
